Columns and labels:
[1] = test system: production of various cytokines; assay: In vitro studies of pharmacological activity profile and cytokine production; assay type: cell-based, human
Method: The pharmacological properties of 3-(3,4-dimethoxy-phenyl)-3-(1-oxo-1,3-dihydro-isoindol-2-yl)-propionamide, including activity comparisons with thalidomide, are characterized in in vitro studies. Studies examine the effects of 3-(3,4-dimethoxy-phenyl)-3-(1-oxo-1,3-dihydro-isoindol-2-yl)-propionamide on the production of various cytokines. In addition, a safety pharmacology study of -(3,4-dimethoxy-phenyl)-3-(1-oxo-1,3-dihydro-isoindol-2-yl)-propionamide is conducted in dogs and the effects of the compound on ECG parameters are examined further as part of three repeat-dose toxicity studies in primates.
Inhibition of TNF-α production following LPS-stimulation of human PBMC and human whole blood by 3-(3,4-dimethoxy-phenyl)-3-(1-oxo-1,3-dihydro-isoindol-2-yl)-propionamide is investigated in vitro (Muller et al., Bioorg. Med. Chem. Lett. 9:1625-1630, 1999). The IC50's of 3-(3,4-dimethoxy-phenyl)-3-(1-oxo-1,3-dihydro-isoindol-2-yl)-propionamide for inhibiting production of TNF-α following LPS-stimulation of PBMC and human whole blood is measured.
(§1) The pharmacological effects of 3-(3,4-dimethoxy-phenyl)-3-(1-oxo-1,3-dihydro-isoindol-2-yl)-propionamide derive from its action as an inhibitor of cellular response to receptor-initiated trophic signals (e.g., IGF-1, VEGF, cyclooxygenase-2), and other activities.

[2] = test system: adhesion molecules and apoptosis inhibitory proteins (e.g., cFLIP, cIAP); assay: In vitro pharmacology: adhesion molecules and apoptosis inhibitory proteins; assay type: cell-based
Description: as §1

[3] = test system: death-receptor initiated programmed cell death; assay: In vitro pharmacology: death-receptor initiated programmed cell death; assay type: cell-based
Description: as §1

angiogenic response = assay: In vitro pharmacology: angiogenic response; assay type: cell-based
Description: as §1

AML cells = assay: Mitogenic response to VEGF in AML cells; assay type: cell-based
Description: as §1

[4] = test system: MDS bone marrow progenitor; assay: MDS vs normal bone marrow progenitor formation in pre-clinical models; assay type: cell-based
Description: as §1

MDS patients = conditions: cited from earlier work

COc1ccc(C(CC(N)=O)N2Cc3ccccc3C2=O)cc1OC (stereo not drawn) [3-(3,4-dimethoxy-phenyl)-3-(1-oxo-1,3-dihydro-isoindol-2-yl)-propionamide]
generation of inflammatory cytokines [1]: suppresses the generation of inflammatory cytokines
adhesion molecules and apoptosis inhibitory proteins (e.g., cFLIP, cIAP) [2]: down-regulates adhesion molecules and apoptosis inhibitory proteins
sensitivity to death-receptor initiated programmed cell death [3]: promotes sensitivity to death-receptor initiated programmed cell death
angiogenic response (angiogenic response): suppresses angiogenic response
mitogenic response to VEGF (AML cells): abrogates mitogenic response to VEGF
ligand-induced Akt-phosphorylation (AML cells; VEGF): extinguishing ligant-induced Akt-phosphorylation
MDS vs normal bone marrow progenitor formation [4]: selectively suppresses MDS vs normal bone marrow progenitor formation

recombinant human EPO: erythropoietin (EPO), hematopoietic growth factor
patients with sustained improvement in hemoglobin or decrease in transfusion requirement (MDS patients): less than 25%

recombinant human GM-CSF: granulocyte macrophage colony stimulating factor (GM-CSF)
granulocytopoiesis in treated patients (MDS patients): can restore granulocytopoiesis
improvement in hemoglobin or platelet counts (MDS patients): little or no improvement

B1: G-CSF: granulocyte colony stimulating factor (G-CSF) (protein, UniProt P09919 31-207, looked up)
Granulocyte …: TPLGPASSLPQSFLLKCLEQVRKIQGDGAALQEKLVSECATYKLCHPEELVLLGHSLGIPWAPLSSCPSQALQLAGCLSQLHSGLFLYQGLLQALEGISPELGPTLDTLQLDVADFATTIWQQMEELGMAPALQPTQGAMPAFASAFQRRAGGVLVASHLQSFLEVSYRVLRHLAQP
granulocytopoiesis in treated patients (MDS patients): can restore granulocytopoiesis
improvement in hemoglobin or platelet counts (MDS patients): little or no improvement

From US20080213213A1, “Method For the Treatment of Myelodysplastic Syndromes Using (+)-2-[1-(3-Ethoxy-4-Methoxyphenyl)-2-Methylsulfonylethyl]-4-Acetylaminoisoindoline-1,3-Dione” (priority 2004, published 2008)
